Assay results: patent US8084479B2, “Thiazole compounds and methods of use” (Amgen Inc., priority 2006, dated 2011)
Structures can show the parent of a compound that is named as a salt.

The molecules below were run against PKBα (Homo sapiens, UniProt P31749) (assay: PKB kinase assay (P33-labeled ATP, peptide substrate, filter plate)). Conditions: PKBα enzyme (full length or kinase domain with pleckstrin domain deleted).
Chain of PKBα (P31749 118-480 limits assumed): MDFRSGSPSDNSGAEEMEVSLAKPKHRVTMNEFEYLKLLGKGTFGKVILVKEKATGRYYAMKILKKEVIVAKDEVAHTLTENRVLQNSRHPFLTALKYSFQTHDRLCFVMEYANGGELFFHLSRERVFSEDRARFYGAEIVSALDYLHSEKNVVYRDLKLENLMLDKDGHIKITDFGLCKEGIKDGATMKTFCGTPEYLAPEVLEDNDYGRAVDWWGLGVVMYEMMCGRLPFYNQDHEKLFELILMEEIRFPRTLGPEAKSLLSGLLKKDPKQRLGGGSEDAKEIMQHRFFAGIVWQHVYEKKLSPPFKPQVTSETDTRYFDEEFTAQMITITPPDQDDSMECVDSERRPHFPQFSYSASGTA
Type: biochemical
Excerpt: The kinase assay for evaluating PKB activity comprises active PKB enzymes, a PKB specific substrate, and P^33-labeled ATP. […] The phosphorylated substrate was captured by a phosphocellulose membrane filter plate (MLLIPORE) and measured by a Wallac Microbeta liquid scintillation counter (Perkin Elmer).
Work on C[C@@H](c1ccc(C(F)(F)F)nc1)[C@H](N)CNc1ncc(-c2ccc3c(c2)CC(=O)N3)s1 [Example 233, 5-(2-((2S,3S)-2-amino-3-(6-(trifluoromethyl)pyridin-3-yl)butylamino)thiazol-5-yl)indolin-2-one] yielded an IC50 of less than 0.05 µM.
C[C@@H](Nc1ncc(-c2ccc3[nH]c(=O)n(C)c3c2)s1)[C@@H](N)Cc1ccc(C(F)(F)F)cc1 [Example 232, 6-(2-((2R,3S)-3-amino-4-(4-(trifluoromethyl)phenyl)butan-2-ylamino)thiazol-5-yl)-1-methyl-1H-benzo[d]imidazol-2(3H)-one] gave an IC50 of 0.05 to 1 µM.
For N[C@H](CNc1ncc(-c2ccc3[nH]ncc3c2)s1)Cc1ccc(C(F)(F)F)c(F)c1 [Example 186, N—((S)-2-amino-3-(3-fluoro-4-(trifluoromethyl)phenyl)propyl)-5-(1H-indazol-5-yl)thiazol-2-amine], the IC50 was less than 0.05 µM.
In the case of COC(C)c1nc(NC[C@@H](N)Cc2ccc(C(F)(F)F)cc2)sc1-c1ccc2cnccc2c1 (stereo partly drawn) [Example 16, N—((S)-2-amino-3-(4-(trifluoromethyl)phenyl)propyl)-5-(isoquinolin-6-yl)-4-(1-methoxyethyl)thiazol-2-amine], the IC50 is reported as 0.05 to 1 µM.
C[C@@H](Nc1ncc(-c2ccc3cnccc3c2)s1)[C@@H](N)Cc1ccc(C(F)(F)F)cc1 [Example 230, N-((2R,3S)-3-amino-4-(4-(trifluoromethyl)phenyl)butan-2-yl)-5-(isoquinolin-6-yl)thiazol-2-amine] was tested, and the IC50 was less than 0.05 µM.
In the case of N[C@H](CNc1nc(-c2cccc(F)c2)c(-c2ccc3cnccc3c2)s1)Cc1ccc(C(F)(F)F)cc1 [Example 103, N—((S)-2-amino-3-(4-(trifluoromethyl)phenyl)propyl)-4-(3-fluorophenyl)-5-(isoquinolin-6-yl)thiazol-2-amine], the IC50 is reported as 0.05 to 1 µM.
Molecule Nc1n[nH]c2ccc(-c3cnc(NC[C@@H](N)Cc4c[nH]c5ccccc45)s3)cc12 [Example 37, 5-(2-((S)-2-amino-3-(1H-indol-3-yl)propylamino)thiazol-5-yl)-1H-indazol-3-amine] has an IC50 of 1 to 10 µM.
Molecule N[C@H](CNc1nc(-c2ccccc2F)c(-c2ccc3c(c2)CC(=O)N3)s1)Cc1ccc(C(F)(F)F)cc1 [Example 107, 5-(2-((S)-2-Amino-3-(4-(trifluoromethyl)phenyl)-propylamino)-4-(2-fluorophenyl)thiazol-5-yl)indolin-2-one] has an IC50 of 1 to 10 µM.
In the case of N[C@H](CNc1ncc(-c2ccc3c(c2)OCO3)s1)Cc1c[nH]c2ccccc12 [Example 251, N—((S)-2-amino-3-(1H-indol-3-yl)propyl)-5-(benzo[d][1,3]dioxol-5-yl)thiazol-2-amine], the IC50 is reported as 1 to 10 µM.
Molecule N[C@H](CNc1ncc(-c2ccc3[nH]c(=O)oc3c2)s1)Cc1ccc(Cl)c(F)c1 [Example 84, 6-(2-((S)-2-Amino-3-(4-chloro-3-fluorophenyl)propylamino)thiazol-5-yl)benzo[d]oxazol-2(3H)-one] has an IC50 of less than 0.05 µM.
In the case of N[C@H](CNc1nc(C#CCO)c(-c2ccc3[nH]c(=O)oc3c2)s1)Cc1ccc(C(F)(F)F)cc1 [Example 150, 6-(2-((S)-2-amino-3-(4-(trifluoromethyl)phenyl)propylamino)-4-(3-hydroxyprop-1-ynyl)thiazol-5-yl)benzo[d]oxazol-2(3H)-one], the IC50 is reported as less than 0.05 µM.
Work on N[C@H](CNc1nc(O)c(-c2ccc(F)c(F)c2)s1)Cc1ccc(Cl)cc1 [Example 80, 2-((S)-2-Amino-3-(4-chlorophenyl)propylamino)-5-(3,4-difluorophenyl)thiazol-4-ol dihydrochloride] yielded an IC50 of 0.05 to 1 µM.
With COCc1nc(NC[C@@H](N)Cc2ccc(C(F)(F)F)cc2)sc1-c1ccc2[nH]ncc2c1 [Example 14, N—((S)-2-amino-3-(4-(trifluoromethyl)phenyl)propyl)-5-(1H-indazol-5-yl)-4-(methoxymethyl)thiazol-2-amine] the IC50 was less than 0.05 µM.
C[C@H](Nc1ncc(-c2ccc3[nH]c(=O)n(C)c3c2)s1)[C@@H](N)Cc1ccc(C(F)(F)F)cc1 [Example 237, 6-(2-((2S,3S)-3-amino-4-(4-(trifluoromethyl)phenyl)butan-2-ylamino)thiazol-5-yl)-1-methyl-1H-benzo[d]imidazol-2(3H)-one] gave an IC50 of 1 to 10 µM.
Cn1c(=O)[nH]c2ccc(-c3cnc(NC[C@@H](N)Cc4ccc5ccccc5c4)s3)cc21 [Example 203, 6-(2-((S)-2-amino-3-(naphthalen-2-yl)propylamino)thiazol-5-yl)-1-methyl-1H-benzo[d]imidazol-2(3H)-one] gave an IC50 of 0.05 to 1 µM.
In the case of Cc1n[nH]c2ccc(-c3cnc(NC[C@@H](N)Cc4ccccc4)s3)cc12 [Example 1, N—((S)-2-amino-3-phenylpropyl)-5-(3-methyl-1H-indazol-5-yl)thiazol-2-amine], the IC50 is reported as 0.05 to 1 µM.
With CCc1nc(NC[C@@H](N)Cc2ccc(C(F)(F)F)cc2)sc1-c1nc2ccncc2s1 [Example 23, N—((S)-2-amino-3-(4-(trifluoromethyl)phenyl)propyl)-4-ethyl-5-(thiazolo[5,4-c]pyridin-2-yl)thiazol-2-amine] the IC50 was 0.05 to 1 µM.
Cn1c(=O)[nH]c2ccc(-c3sc(NC[C@@H](N)Cc4ccc(C(F)(F)F)cc4)nc3C(F)(F)CO)cc21 [Example 136, 6-(2-((S)-2-Amino-3-(4-(trifluoromethyl)phenyl)propylamino)-4-(1,1-difluoro-2-hydroxyethyl)thiazol-5-yl)-1-methyl-1H-benzo[d]imidazol-2(3H)-one] showed an IC50 of 1 to 10 µM.
In the case of COCC#Cc1nc(NC[C@@H](N)Cc2ccc(C(F)(F)F)cc2)sc1-c1ccc2cnccc2c1 [Example 146, N—((S)-2-amino-3-(4-(trifluoromethyl)phenyl)propyl)-5-(isoquinolin-6-yl)-4-(3-methoxyprop-1-ynyl)thiazol-2-amine], the IC50 is reported as 0.05 to 1 µM.
Work on C[C@@H](c1ccccc1)[C@H](N)CNc1ncc(-c2ccc3[nH]c(=O)oc3c2)s1 [Example 88, 6-(2-((2S,3S)-2-Amino-3-phenylbutylamino)thiazol-5-yl)benzo[d]oxazol-2(3H)-one] yielded an IC50 of 1 to 10 µM.
In the case of Cc1nc(NC[C@@H](N)Cc2ccccc2)sc1-c1ccc2[nH]nc(C)c2c1 [Example 7, N—((S)-2-amino-3-phenylpropyl)-4-methyl-5-(3-methyl-1H-indazol-5-yl)thiazol-2-amine], the IC50 is reported as 1 to 10 µM.
With Cn1ncc2ccc(-c3cnc(NC[C@@H](N)Cc4ccc(C(F)(F)F)cc4)s3)cc21 [Example 167, N—((S)-2-amino-3-(4-(trifluoromethyl)phenyl)propyl)-5-(1-methyl-1H-indazol-6-yl)thiazol-2-amine] the IC50 was 1 to 10 µM.
For N[C@H](CNc1ncc(-c2ccc3c(c2)CC(=O)N3)s1)Cc1cccc(C(F)(F)F)c1 [Example 44, 5-(2-((S)-2-amino-3-(3-(trifluoromethyl)phenyl)propylamino)thiazol-5-yl)indolin-2-one], the IC50 was 0.05 to 1 µM.
In the case of COCc1nc(N(C[C@@H](N)Cc2ccc(C(F)(F)F)cc2)C(C)=O)sc1-c1nc2ccncc2s1 [Example 26, N—((S)-2-amino-3-(4-(trifluoromethyl)phenyl)propyl)-N-(4-(methoxymethyl)-5-(thiazolo[5,4-c]pyridin-2-yl)thiazol-2-yl)acetamide], the IC50 is reported as 1 to 10 µM.
N[C@H](CNc1ncc(-c2ccc3cn[nH]c3c2)s1)Cc1ccc(C(F)(F)F)cc1 [Example 48, N—((S)-2-amino-3-(4-(trifluoromethyl)phenyl)propyl)-5-(1H-indazol-6-yl)thiazol-2-amine] was tested, and the IC50 was 0.05 to 1 µM.
For COc1ccc(CC(N)CNc2ncc(-c3ccc4[nH]c(=O)oc4c3)s2)cc1F (centres unmarked) [Example 129, 6-(2-(2-Amino-3-(3-fluoro-4-methoxyphenyl)propylamino)-thiazol-5-yl)benzo[d]oxazol-2(3H)-one], the IC50 was 0.05 to 1 µM.
N[C@H](CNc1ncc(-c2ccc3c(c2)CC(=O)N3)s1)Cc1ccc(F)c(F)c1 [Example 126, 5-(2-((S)-2-Amino-3-(3,4-difluorophenyl)propylamino)thiazol-5-yl)indolin-2-one] showed an IC50 of 0.05 to 1 µM.
COC(=O)c1nc(NC[C@@H](N)Cc2ccc(C(F)(F)F)cc2)sc1-c1ccc2cnccc2c1 [Example 117, Methyl 2-((S)-2-amino-3-(4-(trifluoromethyl)phenyl)-propylamino)-5-(isoquinolin-6-yl)thiazole-4-carboxylate] gave an IC50 of less than 0.05 µM.
In the case of N[C@H](CNc1ncc(-c2ccc3[nH]c(=O)oc3c2)s1)Cc1ccc(C(F)(F)F)c(F)c1 [Example 183, 6-(2-((S)-2-amino-3-(3-fluoro-4-(trifluoromethyl)phenyl)propylamino)thiazol-5-yl)benzo[d]oxazol-2(3H)-one], the IC50 is reported as less than 0.05 µM.
Molecule N[C@H](CNc1nc(C#CCO)c(-c2ccc3c(c2)CC(=O)N3)s1)Cc1ccc(C(F)(F)F)cc1 [Example 145, 5-(2-((S)-2-amino-3-(4-(trifluoromethyl)phenyl)propylamino)-4-(3-hydroxyprop-1-ynyl)thiazol-5-yl)indolin-2-one] has an IC50 of less than 0.05 µM.
For CC1C(=O)Nc2ccc(-c3cnc(NC[C@@H](N)Cc4ccccc4)s3)cc21 (stereo partly drawn) [Example 70, 5-(2-((S)-2-amino-3-phenylpropylamino)thiazol-5-yl)-3-methylindolin-2-one], the IC50 was 1 to 10 µM.
CNc1cc2cc(-c3cnc(NC[C@@H](N)Cc4ccc(Cl)cc4)s3)ccc2cn1 [Example 139, 6-(2-((S)-2-amino-3-(4-chlorophenyl)propylamino)thiazol-5-yl)-N-methylisoquinolin-3-amine] gave an IC50 of less than 0.05 µM.
Work on COCc1nc(NC[C@@H](N)Cc2ccc(Cl)c(Cl)c2)sc1-c1nc2ccncc2s1 [Example 96, N—((S)-2-Amino-3-(3,4-dichlorophenyl)propyl)-4-(methoxymethyl)-5-(thiazolo[5,4-c]pyridin-2-yl)thiazol-2-amine] yielded an IC50 of less than 0.05 µM.
With COC(=O)c1nc(NC[C@@H](N)Cc2ccc(C(F)(F)F)cc2)sc1-c1ccc2[nH]c(=O)oc2c1 [Example 124, Methyl 2-((S)-2-Amino-3-(4-(trifluoromethyl)phenyl)propylamino)-5-(2-oxo-2,3-dihydrobenzo[d]oxazol-6-yl)thiazole-4-carboxylate] the IC50 was less than 0.05 µM.
N[C@H](CNc1ncc(-c2ccc3c(c2)CC(=O)N3)s1)Cc1ccc2ccccc2c1 [Example 201, 5-(2-((S)-2-amino-3-(naphthalen-2-yl)propylamino)thiazol-5-yl)indolin-2-one] showed an IC50 of 0.05 to 1 µM.
